pEC50: −log10 of the molar value.
Key:
Huh7.5 cells = format: cell-based, human; conditions: higher concentrations marked # in Fig. 4A
[1] = test system: original-SARS2 (P2VeroE6 virus, SARS-CoV-2_DK-AHH1); experiment: microbe, parasite or virus in culture; format: cell-based

In the case of `COc1c(NC(=O)C(=O)c2ccc(OCCN3CCOCC3)c3ccccc23)cc(C(C)(C)C)cc1NS(C)(=O)=O` [ITX5061], the cytotoxicity (Huh7.5 cells) was “cytotoxic”.
With `CCC(CC)COC(=O)[C@H](C)N[P@](=O)(OC[C@H]1O[C@@](C#N)(c2ccc3c(N)ncnn23)[C@H](O)[C@@H]1O)Oc1ccccc1` [Remdesivir] the “fold-higher activity in Huh7.5 cells than in Vero E6 cells” value [1] was ~50 fold and the pEC50 ([1]; Severe acute respiratory syndrome coronavirus 2, Huh7.5) was 7.52.

— article PMC8406809 (Antimicrobial Agents and Chemotherapy, 2021)
